Experimental findings from ChEMBL document CHEMBL4819126, “Enantiomeric profiling of a chiral benzothiazole necroptosis inhibitor” (Bioorg Med Chem Lett, 2021) are described below.

Experiment [1] has as its system U-937. Put plainly: Anti-necroptotic activity against TNFalph/Z-VAD-FMK-induced human U-937 cells assessed as cell viability measured after 19 to 21 hrs by CellTiter-Glo luminescent cell viability assay. In kind it is functional, cell-based. Background: In ATP-based viability assays light output follows the ATP content of the culture.
Experiment [2] has as its target Receptor-interacting serine/threonine-protein kinase 3 (Homo sapiens, UniProt Q9Y572). The experiment can be described thus: Inhibition of human wild type RIPK3 (M1 to Q307) expressed in bacterial system by kinomescan assay.
Experiment [3] has as its target T1, Receptor-interacting serine/threonine-protein kinase 1 (Homo sapiens) (UniProt Q13546).
T1 sequence (whole entry): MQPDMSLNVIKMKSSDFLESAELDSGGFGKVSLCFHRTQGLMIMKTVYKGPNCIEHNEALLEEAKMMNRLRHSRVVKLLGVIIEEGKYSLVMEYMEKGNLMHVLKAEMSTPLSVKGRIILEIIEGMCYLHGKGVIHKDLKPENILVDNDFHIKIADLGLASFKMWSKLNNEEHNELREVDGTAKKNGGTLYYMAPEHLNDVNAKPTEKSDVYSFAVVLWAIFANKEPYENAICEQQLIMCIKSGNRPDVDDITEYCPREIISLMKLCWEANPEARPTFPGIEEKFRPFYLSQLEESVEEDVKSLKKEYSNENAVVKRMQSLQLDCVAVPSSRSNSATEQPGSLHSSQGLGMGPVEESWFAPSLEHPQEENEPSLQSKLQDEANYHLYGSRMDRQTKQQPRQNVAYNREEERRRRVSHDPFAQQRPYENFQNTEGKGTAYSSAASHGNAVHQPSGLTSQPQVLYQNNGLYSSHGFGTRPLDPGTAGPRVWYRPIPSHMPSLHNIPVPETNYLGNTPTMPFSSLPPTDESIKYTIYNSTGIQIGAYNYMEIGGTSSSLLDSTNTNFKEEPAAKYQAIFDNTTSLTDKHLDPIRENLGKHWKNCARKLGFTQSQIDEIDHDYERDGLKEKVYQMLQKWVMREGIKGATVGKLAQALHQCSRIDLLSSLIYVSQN
Put plainly: Inhibition of RIPK1 in human HT-29 cells assessed as inhibition of TSZ-induced RIPK1 phosphorylation at 1 uM measured upto 4 hrs by Western blot analysis. It counts as cell-based. The settings on record: time hrs <=4. (Immunoblotting shows a protein as a band on a membrane.)

Experiment [4] has as its target T2, Receptor-interacting serine/threonine-protein kinase 1 (Mus musculus) (UniProt Q60855).
T2 sequence (whole entry): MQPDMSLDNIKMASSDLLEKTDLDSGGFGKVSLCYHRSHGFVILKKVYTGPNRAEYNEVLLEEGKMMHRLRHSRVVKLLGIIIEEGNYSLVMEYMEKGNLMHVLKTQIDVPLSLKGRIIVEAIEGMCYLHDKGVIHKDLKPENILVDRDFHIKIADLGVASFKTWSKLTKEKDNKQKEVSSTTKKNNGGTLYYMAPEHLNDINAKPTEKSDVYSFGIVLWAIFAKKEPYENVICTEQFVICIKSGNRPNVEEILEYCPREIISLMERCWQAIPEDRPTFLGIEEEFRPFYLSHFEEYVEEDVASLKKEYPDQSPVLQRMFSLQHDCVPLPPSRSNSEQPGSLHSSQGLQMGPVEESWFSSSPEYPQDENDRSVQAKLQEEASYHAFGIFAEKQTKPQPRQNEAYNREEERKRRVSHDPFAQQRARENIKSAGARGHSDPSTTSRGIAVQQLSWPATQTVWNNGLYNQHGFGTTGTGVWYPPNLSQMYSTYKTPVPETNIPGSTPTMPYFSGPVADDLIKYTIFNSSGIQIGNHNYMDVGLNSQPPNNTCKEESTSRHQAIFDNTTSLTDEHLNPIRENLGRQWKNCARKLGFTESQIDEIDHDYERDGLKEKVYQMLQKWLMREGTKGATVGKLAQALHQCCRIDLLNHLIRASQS
The experiment can be described thus: Inhibition of RIPK1 in mouse L929 cells assessed as TZ-induced RIPK3 phosphorylation at 1 uM measured upto 4 hrs by Western blot analysis. The settings on record: time hrs <=4. In kind it is cell-based.

Experiment [5] has as its system HT-29. The experiment can be described thus: Anti-necroptotic activity in human HT-29 cells assessed as inhibition of TSZ induced necroptosis at 2.5 uM measured after 12 hrs. In kind it is functional, cell-based.
The target of experiment [6] is T1, Receptor-interacting serine/threonine-protein kinase 1 (Homo sapiens). Put plainly: Inhibition of RIPK1 in human HT-29 cells assessed as inhibition of TSZ-induced MLKL phosphorylation at 1 uM measured upto 4 hrs by Western blot analysis. In kind it is cell-based. To be noted: time hrs <=4.
The target is the same in experiment [7]. The experiment can be described thus: Inhibition of RIPK1 in human HT-29 cells assessed as inhibition of TSZ-induced RIPK3 phosphorylation at 1 uM measured upto 4 hrs by Western blot analysis. In kind it is cell-based. The settings on record: time hrs <=4.
Experiment [8] has as its target T3, Receptor-interacting serine/threonine-protein kinase 1 (Homo sapiens, UniProt Q13546).
T3 sequence (Q13546 whole entry): T1 sequence (whole entry)
Put plainly: Inhibition of human wild type RIPK1 (M1 to K305) expressed in bacterial system by kinomescan assay.

In experiment [9] the test system is HT-29. The experiment can be described thus: Anti-necroptotic activity in human HT-29 cells assessed as inhibition of TNFalpha/Z-VAD-fmk (TCZ)-induced necroptosis pretreated for 8 to 12 hrs. It counts as functional, cell-based.
Experiment [10] deals with HT-29. Put plainly: Anti-necroptotic activity in human HT-29 cells assessed as inhibition of TNFalpha/TS induced necroptosis uM measured after 36 hrs. In kind it is functional, cell-based.
For experiment [11], the system named is L929. The experiment can be described thus: Anti-necroptotic activity in mouse L929 cells assessed as inhibition of TZ-induced necroptosis measured after 9 hrs. In kind it is functional, cell-based.
The test system of experiment [12] is L929. Put plainly: Anti-necroptotic activity in mouse L929 cells assessed as inhibition of mTNFalpha-induced necroptosis measured after 9 hrs. It counts as functional.
The target of experiment [13] is T2, Receptor-interacting serine/threonine-protein kinase 1 (Mus musculus). Put plainly: Inhibition of RIPK1 in mouse L929 cells assessed as TZ-induced MLKL phosphorylation at 1 uM measured upto 4 hrs by Western blot analysis. It counts as cell-based. The settings on record: time hrs <=4.
In experiment [14] the test system is L929. The experiment can be described thus: Anti-necroptotic activity against TNFalph/Z-VAD-FMK-induced mouse L929 cells assessed as cell viability measured after 19 to 21 hrs by CellTiter-Glo luminescent cell viability assay. In kind it is functional, cell-based.
For experiment [15], the system named is HT-29. The experiment can be described thus: Anti-necroptotic activity in human HT-29 cells assessed as inhibition of TSZ induced necroptosis at 0.25 uM measured after 12 hrs. In kind it is functional. On the set-up: scale not given: the % may be the effect or the level left.
In experiment [16] the test system is HT-29. Put plainly: Anti-necroptotic activity in human HT-29 cells assessed as inhibition of TSZ induced necroptosis measured after 12 hrs. It counts as functional, cell-based. To be noted: dose 0.025-25 µM.

The source made the active and inactive calls. The calls are words filed in the database; no cut-off is given here. Some results are limits rather than exact numbers.

Chain of Receptor-interacting serine/threonine-protein kinase 3 (Q9Y572 whole entry): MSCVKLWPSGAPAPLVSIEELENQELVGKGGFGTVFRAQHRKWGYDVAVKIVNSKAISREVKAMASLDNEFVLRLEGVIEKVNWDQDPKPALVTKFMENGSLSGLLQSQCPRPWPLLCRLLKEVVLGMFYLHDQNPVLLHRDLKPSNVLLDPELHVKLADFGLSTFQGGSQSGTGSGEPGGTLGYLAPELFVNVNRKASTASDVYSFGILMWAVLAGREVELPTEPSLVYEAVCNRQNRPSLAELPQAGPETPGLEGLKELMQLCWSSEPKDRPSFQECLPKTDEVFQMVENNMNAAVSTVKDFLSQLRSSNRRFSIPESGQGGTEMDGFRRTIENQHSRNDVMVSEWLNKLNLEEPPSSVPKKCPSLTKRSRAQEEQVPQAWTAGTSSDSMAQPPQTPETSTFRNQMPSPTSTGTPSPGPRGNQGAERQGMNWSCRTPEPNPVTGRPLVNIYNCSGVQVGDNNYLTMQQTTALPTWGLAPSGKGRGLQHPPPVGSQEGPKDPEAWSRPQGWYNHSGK

As for `CN1C(=O)[C@@H](NC(=O)c2cc(Cc3ccccc3)on2)COc2ccccc21`, in [1], the IC50 – broadly, the point on the concentration scale where inhibition reaches its midpoint – amounted to 10 nM.

`CC(C)(C)C(=O)N1N=CC[C@@H]1c1ccccc1`: the IC50 in [1] was over 10000 nM.

`CC1(C)C[C@H]1C(=O)Nc1nc2ccc(Oc3ccc(F)c(NC(=O)Cc4cccc(C(F)(F)F)c4)c3)cc2s1`: the Kd (usually the concentration at which binding is half-saturated) in experiment [2] was determined as 650 nM; in experiment [8], 1700 nM. The inhibition result in experiment [3], in experiment [4], in [5], in [6], in experiment [7] and in experiment [13] was “Active” each time. Further, in experiment [9], the EC50 (usually the concentration needed to bring the measured effect to its halfway point) amounted to 290 nM. Further, the Activity entry in experiment [10] and in experiment [11] was “Dose-Dependent Effect” each time. In [12], the “inhibition (INH)” value was found to be 100%.

As for `CC(C)(C)C(=O)N1N=CC[C@H]1c1ccccc1`, the IC50 in experiment [14] stood at 3.1 nM.

For `CC1(C)C[C@@H]1C(=O)Nc1nc2ccc(Oc3ccc(F)c(NC(=O)Cc4cccc(C(F)(F)F)c4)c3)cc2s1`, the Kd in [2] came out at 145 nM; in experiment [8], 430 nM. The inhibition entry in experiment [3], in experiment [4], in [5], in experiment [6], in [7] and in [13] was “Active” throughout. Moreover, the Activity was 90% in experiment [15], “Dose-Dependent Effect” in experiment [10] and “Dose-Dependent Effect” in experiment [11]. For the same compound, in experiment [9], the EC50 was determined as 150 nM. Moreover, the “inhibition (INH)” value in experiment [12] came to 100%.

In the case of `CN1C(=O)[C@H](NC(=O)c2cc(Cc3ccccc3)on2)COc2ccccc21`, the concentration for half-maximal inhibition (IC50) in [1] was over 10000 nM.

Regarding `CC1(C)CC1C(=O)Nc1nc2ccc(Oc3ccc(F)c(NC(=O)Cc4cccc(C(F)(F)F)c4)c3)cc2s1` (racemic), the equilibrium dissociation constant (Kd) was determined as 270 nM in experiment [2] and 480 nM in experiment [8]. The inhibition result in [3], in [6] and in experiment [7] was “Active” in each case. Besides, the inhibition in experiment [4] and in experiment [13] was 100% each time. In addition, the Activity entry in experiment [16], in experiment [10] and in [11] was “Dose-Dependent Effect” each time. In experiment [9], the EC50 worked out at 310 nM. In addition, the “inhibition (INH)” value in experiment [12] was 100%.
